Here are results for 11 compounds from ChEMBL document CHEMBL1201862, “PubChem BioAssay data set” (2004).

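Five compound concentrations were applied to cells in 96-well plates for 48 hours; endpoints were derived by simple linear interpolation of the resulting dose-response curve. GI50 is the concentration that inhibits growth by half.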 Active and inactive are the calls of the source. No stated cut-off is given here; in the data, active = GI50 up to about 1.1 µM and inactive = higher.

Common to all, as to experiment: NCI-60 cell line screen, 48 h
The subject of assay [1] is 786-0.
The subject of assay [2] is A549.
Assay [3] concerns COLO 205.
The subject of assay [4] is HCT-116.
Assay [5] deals with HL-60.
Assay [6] relates to HOP-62.
In assay [7] the test system is HOP-92.
The subject of assay [8] is HT-29.
Assay [9] has as its system KM12.
The subject of assay [10] is MCF7.
The subject of assay [11] is MDA-MB-231.
Assay [12] has as its system MDA-MB-435.
Assay [13] has as its system MOLT-4.
Assay [14] deals with NCI-H522.
Assay [15] deals with RPMI-8226.
Assay [16] has as its system T47D.
Assay [17] relates to UACC-62.
For assay [18], the system named is UO-31.
The subject of assay [19] is HCC 2998.
The test system of assay [20] is SNB-75.

As to `CC(C)(C)OC(=O)CCC1NC(=O)[C@@H]2Cc3c([nH]c4ccccc34)C(C3CCCCC3)N2C1=O` (stereo not given in full), the GI50 in assay [1] is 35.3 µM (inactive); in assay [2] it was 26.4 µM (inactive); in assay [3], 17.9 µM (inactive); in assay [4], 27 µM (inactive); in assay [5], 16.6 µM (inactive); in assay [6], 35.6 µM (inactive). Besides, the GI50 in [7] is 33.2 µM (inactive); in assay [8], 18.6 µM (inactive); in assay [9], 24.9 µM (inactive); in assay [10], 26.7 µM (inactive); in assay [11] it was 22 µM (inactive); in [12], 30.8 µM (inactive). In addition, the GI50 in assay [13] is 12.4 µM (inactive); in assay [14], 30.3 µM (inactive); in assay [15], 16.4 µM (inactive); in [16], 27.9 µM (inactive); in [17], 45.3 µM (inactive); in [18] it was 41.5 µM (inactive).

On to `O=c1ccn(C2OC(CN(O)CCC3C(CO)OC(n4ccc(=O)[nH]c4=O)C3O)C(O)C2O)c(=O)[nH]1` (stereo not given), for which the GI50 in assay [1], in assay [2], in [3], in [19], in [4] and in assay [5] was > 100 µM (inactive) each time. Also, the GI50 in [6], in assay [7], in assay [8], in assay [9], in [10] and in assay [11] was > 100 µM (inactive) in each case. Also, the GI50 in assay [12], in assay [13], in assay [15], in assay [20], in [16] and in [17] was > 100 µM (inactive) in each case. Moreover, in [18], the GI50 is > 100 µM (inactive).

In the case of `COC(=O)C1CCOC(C)N1C(=O)OC(C)(C)C` (stereo not given), the GI50 in assay [1], in assay [2], in assay [3], in assay [19], in assay [4] and in assay [5] was > 100 µM (inactive) in each case. Moreover, the GI50 in [6], in assay [8], in assay [9], in assay [10], in assay [11] and in [12] was > 100 µM (inactive) each time. The GI50 in assay [13], in assay [14], in [15], in assay [20], in [16] and in [17] was > 100 µM (inactive) in each case. Moreover, in assay [18], the GI50 is > 100 µM (inactive).

As to `CNc1ncccc1Nc1cc(=O)n2c3cccnc3n(C)c2c1`, the GI50 in [1] is > 100 µM (inactive); in [2] it was > 100 µM (inactive); in assay [3] it was > 100 µM (inactive); in assay [19], > 100 µM (inactive); in [4], > 100 µM (inactive); in assay [6] it was 36.8 µM (inactive). Besides, the GI50 in assay [8] was 58.3 µM (inactive); in assay [9], > 100 µM (inactive); in assay [10] it was > 100 µM (inactive); in assay [11], 13.7 µM (inactive); in assay [12] it was > 100 µM (inactive); in [13], > 100 µM (inactive). The GI50 is 61 µM (inactive) in assay [14]; > 100 µM (inactive) in assay [15]; 24.9 µM (inactive) in [20]; > 100 µM (inactive) in assay [16]; > 100 µM (inactive) in assay [17]; > 100 µM (inactive) in assay [18].

For `CCN(CC)CCCC(C)Nc1cc(/C=C/c2ccc(Cl)cc2)nc2cc(N(C)C)ccc12` (stereo not given), the GI50 was 2.92 µM (inactive) in [1]; 2.25 µM (inactive) in assay [2]; 2.07 µM (inactive) in assay [19]; 1.24 µM (inactive) in [4]; 1.72 µM (inactive) in assay [5]; 1.89 µM (inactive) in assay [6]. For the same compound, the GI50 in assay [7] was 1.74 µM (inactive); in assay [8] it was 1.34 µM (inactive); in assay [9], 1.7 µM (inactive); in assay [10], 1.34 µM (inactive); in [11] it was 1.22 µM (inactive); in assay [12] it was 1.67 µM (inactive). The GI50 in assay [13] was 1.19 µM (inactive); in assay [16], 1.66 µM (inactive); in [17], 2.52 µM (inactive); in assay [18], 2.04 µM (inactive).

For the compound `Nc1ccc2nc3n(c(=O)c2c1)CCCCC3`, the GI50 in assay [1], in assay [2], in assay [3], in [4], in assay [5] and in assay [6] was > 100 µM (inactive) each time. In addition, the GI50 in [7], in [8], in assay [9], in assay [10], in [11] and in assay [12] was > 100 µM (inactive) throughout. Also, the GI50 in assay [13], in assay [14], in assay [15], in assay [20], in assay [16] and in assay [17] was > 100 µM (inactive) throughout. Besides, the GI50 in assay [18] is > 100 µM (inactive).

As for `Cc1ccsc1/C=N/Nc1ncccn1`, the GI50 in assay [1], in assay [2], in assay [3], in assay [19], in assay [4] and in [5] was > 100 µM (inactive) each time. Further, the GI50 in assay [6] was > 100 µM (inactive); in [7], > 100 µM (inactive); in [8], > 100 µM (inactive); in [9] it was 32.4 µM (inactive); in [10], 0.741 µM (active); in assay [11] it was > 100 µM (inactive). In addition, the GI50 in [12], in [13], in [15], in [20], in assay [16] and in [17] was > 100 µM (inactive) each time. In addition, in assay [18], the GI50 is > 100 µM (inactive).

On to `BrCC[P+](c1ccccc1)(c1ccccc1)c1ccccc1`, for which the GI50 in assay [1] was 2.75 µM (inactive); in assay [2] it was 1.91 µM (inactive); in [3], 2.87 µM (inactive); in assay [19], 9.42 µM (inactive); in [4], 2.28 µM (inactive); in assay [5] it was 2.25 µM (inactive). Moreover, the GI50 in assay [6] was 6.68 µM (inactive); in [7], 3.57 µM (inactive); in [8], 13.3 µM (inactive); in assay [9] it was 4.8 µM (inactive); in assay [10], 13.5 µM (inactive); in [11], 18.3 µM (inactive). The GI50 in assay [12] was 2.84 µM (inactive); in assay [13] it was 4.43 µM (inactive); in assay [15] it was 0.948 µM (active); in assay [20], 3.23 µM (inactive); in assay [16], 1.27 µM (inactive); in assay [17], 6.58 µM (inactive). Moreover, the GI50 in [18] is 4.75 µM (inactive).

With `CSc1ccc(/C=C2\N=C(c3ccccc3)N(c3nc4cc(C)c(C)cc4s3)C2=O)cc1`, the GI50 in assay [1] is 21.9 µM (inactive); in assay [2], 30.1 µM (inactive); in [3], 35.2 µM (inactive); in assay [19], 32.1 µM (inactive); in assay [4] it was 18.3 µM (inactive); in [5], 20.9 µM (inactive). The GI50 is 23.6 µM (inactive) in [6]; 13.5 µM (inactive) in [7]; 22.2 µM (inactive) in assay [8]; 27.4 µM (inactive) in assay [9]; 15.3 µM (inactive) in [10]; 24.6 µM (inactive) in assay [11]. The GI50 in assay [12] was 12.9 µM (inactive); in assay [13], 61.9 µM (inactive); in assay [15] it was 52.1 µM (inactive); in assay [20] it was 28.8 µM (inactive); in assay [16], 44.8 µM (inactive); in [17] it was 28.1 µM (inactive). Also, in assay [18], the GI50 is 28.9 µM (inactive).

For `COc1ccc2c(c1)C(N)=C(Cc1ccncc1)C2=O`, the GI50 in assay [1] is > 100 µM (inactive); in [2], > 100 µM (inactive); in assay [3], > 100 µM (inactive); in assay [4], > 100 µM (inactive); in assay [5], 49.4 µM (inactive); in assay [6], > 100 µM (inactive). Also, the GI50 in assay [7] is 31.4 µM (inactive); in assay [8], > 100 µM (inactive); in assay [9], > 100 µM (inactive); in assay [10], 82.4 µM (inactive); in assay [11], > 100 µM (inactive); in [12], > 100 µM (inactive). Further, the GI50 in assay [13] is 63.1 µM (inactive); in assay [14], 89.7 µM (inactive); in [15], > 100 µM (inactive); in [20] it was 28.4 µM (inactive); in [16] it was 55.2 µM (inactive); in assay [17] it was 81.3 µM (inactive). Further, the GI50 in assay [18] was 46 µM (inactive).

With `N[C@H]1CCC[C@@H](O)C1O` (stereo not given in full), the GI50 in [1], in assay [2], in assay [19], in [4], in assay [5] and in assay [6] was > 100 µM (inactive) in each case. For the same compound, the GI50 in assay [8], in assay [9], in assay [10], in assay [11], in [12] and in assay [15] was > 100 µM (inactive) throughout. Further, the GI50 in [20], in assay [16] and in assay [17] was > 100 µM (inactive) in each case.
